# Test results taken from patent US20100267561A1, “HERBICIDAL PYRIDAZINONE DERIVATIVES” (priority 2007, published 2010).
# Assays:
# Test in all cases: Test B pre-/postemergence plant response
# Format in all cases: in vivo
# wild oat (Avena fatua) = system: wild oat (Avena fatua)
# In short: (§1)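 Preemergence and postemergence (plants 2-18 cm, 1- to 4-leaf stage) applications used test chemicals in a non-phytotoxic solvent with surfactant. Plants were held in a greenhouse 13 to 15 days, then rated visually against controls on a 0-100 scale (0 no effect, 100 complete control).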
# [1] = system: blackgrass (Alopecurus myosuroides); details: for Blackgrass plant response rating: 8 g ai/ha
# In short: as §1
# corn (Zea mays) = system: corn (Zea mays)
# In short: as §1
# [2] = system: pigweed (Amaranthus retroflexus)
# In short: as §1
# [3] = system: woolly cupgrass (Eriochloa villosa)
# In short: as §1
# [4] = system: lambsquarters (Chenopodium album)
# In short: as §1
# [5] = system: downy bromegrass (Bromus tectorum); details: for Bromegrass, Downy plant response rating: 8 g ai/ha
# In short: as §1
# [6] = system: catchweed bedstraw (Galium aparine); details: Preemergence, scale 0 to 100
# In short: as §1
# [7] = system: green foxtail (Setaria viridis)
# In short: as §1
# [8] = system: morningglory (Ipomoea coccinea)
# In short: as §1
# [9] = system: goosegrass (Eleusine indica)
# In short: as §1
# [10] = system: common ragweed (Ambrosia elation)
# In short: as §1
# [11] = system: giant foxtail (Setaria faberii)
# In short: as §1
# [12] = system: surinam grass (Brachiaria decumbens)
# In short: as §1
# [13] = 8 g ai/ha, postemergence, 0-100 scale
# [14] = Postemergence, 16 g ai/ha, scale 0 to 100
# [15] = Postemergence, 31 g ai/ha, scale 0 to 100
# [16] = Postemergence, 62 g ai/ha, scale 0 to 100, 0 no effect, 100 complete control
# [17] = Preemergence, 31 g ai/ha, scale 0 to 100 (0 no effect, 100 complete control)
# [18] = Preemergence, 62 g ai/ha, scale 0 to 100
# [19] = Preemergence, 8 g ai/ha, scale 0 to 100
# [20] = Preemergence, 16 g ai/ha, scale 0 to 100
# [21] = Preemergence, 16 g ai/ha, scale 0 to 100 (0 no effect, 100 complete control)
# [22] = Preemergence, 31 g ai/ha, 0 to 100 scale, 0 no effect, 100 complete control
smiles,measurement,setting,value
Cc1cc(-c2ccc(Cl)cc2)nn1-c1c(OC(=O)c2cccs2)cnn(C)c1=O [Compound 52],"Oat, Wild plant response rating",wild oat (Avena fatua); [13],50
same,"Plant response rating, Oat, Wild",wild oat (Avena fatua); [14],90
same,"Plant response rating, Oat, Wild",wild oat (Avena fatua); [15],95
same,"Plant response rating, Oat, Wild",wild oat (Avena fatua); [16],100
same,"Plant response rating, Oat, Wild",wild oat (Avena fatua); [17],70
same,"Plant response rating, Oat, Wild",wild oat (Avena fatua); [18],90
same,"Oat, Wild plant response rating",wild oat (Avena fatua); [19],0
same,"Oat, Wild plant response rating",wild oat (Avena fatua); [20],30
same,Blackgrass plant response rating,"[1]; postemergence, 0-100 scale",50
same,"Plant response rating, Blackgrass",[1]; [14],70
same,"Plant response rating, Blackgrass",[1]; [15],95
same,"Plant response rating, Blackgrass",[1]; [16],95
same,"Plant response rating, Blackgrass",[1]; [21],95
same,"Plant response rating, Blackgrass",[1]; [22],100
same,"Plant response rating, Blackgrass",[1]; [18],100
same,Blackgrass plant response rating,"[1]; Preemergence, scale 0 to 100",0
same,Corn plant response rating,corn (Zea mays); [13],85
same,"Plant response rating, Corn",corn (Zea mays); [14],98
same,"Plant response rating, Corn",corn (Zea mays); [15],98
same,"Plant response rating, Corn",corn (Zea mays); [16],98
same,"Plant response rating, Corn",corn (Zea mays); [22],70
same,"Plant response rating, Corn",corn (Zea mays); [18],75
same,Corn plant response rating,corn (Zea mays); [19],0
same,Corn plant response rating,corn (Zea mays); [20],55
same,Pigweed plant response rating,[2]; [13],0
same,"Plant response rating, Pigweed",[2]; [14],0
same,"Plant response rating, Pigweed",[2]; [15],0
same,"Plant response rating, Pigweed",[2]; [16],0
same,"Plant response rating, Pigweed",[2]; [17],0
same,"Plant response rating, Pigweed",[2]; [18],0
same,Pigweed plant response rating,[2]; [19],0
same,Pigweed plant response rating,[2]; [20],0
same,"Cupgrass, Woolly plant response rating",[3]; [13],75
same,"Plant response rating, Cupgrass, Woolly",[3]; [14],90
same,"Plant response rating, Cupgrass, Woolly",[3]; [15],95
same,"Plant response rating, Cupgrass, Woolly",[3]; [16],100
same,"Plant response rating, Cupgrass, Woolly",[3]; [22],0
same,"Plant response rating, Cupgrass, Woolly",[3]; [18],0
same,"Cupgrass, Woolly plant response rating",[3]; [19],0
same,"Cupgrass, Woolly plant response rating",[3]; [20],0
same,Lambsquarters plant response rating,[4]; [13],0
same,"Plant response rating, Lambsquarters",[4]; [14],0
same,"Plant response rating, Lambsquarters",[4]; [15],0
same,"Plant response rating, Lambsquarters",[4]; [16],0
same,"Plant response rating, Lambsquarters",[4]; [22],0
same,"Plant response rating, Lambsquarters",[4]; [18],0
same,Lambsquarters plant response rating,[4]; [19],0
same,Lambsquarters plant response rating,[4]; [20],0
same,"Bromegrass, Downy plant response rating","[5]; postemergence, 0-100 scale",30
same,"Plant response rating, Bromegrass, Downy",[5]; [14],30
same,"Plant response rating, Bromegrass, Downy",[5]; [15],40
same,"Plant response rating, Bromegrass, Downy",[5]; [16],70
same,"Plant response rating, Bromegrass, Downy",[5]; [21],35
same,"Plant response rating, Bromegrass, Downy",[5]; [22],35
same,"Plant response rating, Bromegrass, Downy",[5]; [18],80
same,"Bromegrass, Downy plant response rating","[5]; Preemergence, scale 0 to 100",0
same,"Plant response rating, Galium",[6]; 62 g ai/ha,0
same,Galium plant response rating,[6]; 8 g ai/ha,0
same,Galium plant response rating,[6]; 16 g ai/ha,0
same,"Foxtail, Green plant response rating",[7]; [13],80
same,"Plant response rating, Foxtail, Green",[7]; [14],95
same,"Plant response rating, Foxtail, Green",[7]; [15],98
same,"Plant response rating, Foxtail, Green",[7]; [16],100
same,"Plant response rating, Foxtail, Green",[7]; [22],100
same,"Plant response rating, Foxtail, Green",[7]; [18],100
same,"Foxtail, Green plant response rating",[7]; [19],90
same,"Foxtail, Green plant response rating",[7]; [20],90
same,Morningglory plant response rating,[8]; [13],0
same,"Plant response rating, Morningglory",[8]; [14],0
same,"Plant response rating, Morningglory",[8]; [15],0
same,"Plant response rating, Morningglory",[8]; [16],0
same,"Plant response rating, Morningglory",[8]; [17],90
same,"Plant response rating, Morningglory",[8]; [18],100
same,Morningglory plant response rating,[8]; [19],0
same,Morningglory plant response rating,[8]; [20],0
same,Goosegrass plant response rating,[9]; [13],60
same,"Plant response rating, Goosegrass",[9]; [14],65
same,"Plant response rating, Goosegrass",[9]; [15],80
same,"Plant response rating, Goosegrass",[9]; [16],85
same,"Plant response rating, Goosegrass",[9]; [22],0
same,"Plant response rating, Goosegrass",[9]; [18],0
same,Goosegrass plant response rating,[9]; [19],0
same,Goosegrass plant response rating,[9]; [20],0
same,Ragweed plant response rating,[10]; [13],0
same,"Plant response rating, Ragweed",[10]; [14],0
same,"Plant response rating, Ragweed",[10]; [15],0
same,"Plant response rating, Ragweed",[10]; [16],0
same,"Plant response rating, Ragweed",[10]; [17],0
same,"Plant response rating, Ragweed",[10]; [18],0
same,Ragweed plant response rating,[10]; [19],0
same,Ragweed plant response rating,[10]; [20],0
same,"Foxtail, Giant plant response rating",[11]; [13],85
same,"Plant response rating, Foxtail, Giant",[11]; [14],98
same,"Plant response rating, Foxtail, Giant",[11]; [15],100
same,"Plant response rating, Foxtail, Giant",[11]; [16],100
same,"Plant response rating, Foxtail, Giant",[11]; [22],0
same,"Plant response rating, Foxtail, Giant",[11]; [18],98
same,"Foxtail, Giant plant response rating",[11]; [19],0
same,"Foxtail, Giant plant response rating",[11]; [20],0
same,Surinam Grass plant response rating,[12]; [13],70
same,"Plant response rating, Surinam Grass",[12]; [14],85
same,"Plant response rating, Surinam Grass",[12]; [15],100
same,"Plant response rating, Surinam Grass",[12]; [16],100
same,"Plant response rating, Surinam Grass",[12]; [17],25
same,"Plant response rating, Surinam Grass","[12]; Preemergence, 62 g ai/ha, 0 to 100 scale, 0 no effect, 100 complete control",100
same,Surinam Grass plant response rating,[12]; [19],0
same,Surinam Grass plant response rating,[12]; [20],0
